Experiments:
rats [1] = details: feed containing 0.1% piperonal and 0.5% piperonal, 2 years; cited from earlier work
TNF-α = experiment: RT-PCR analysis of TNF-α gene expression in mouse liver tissues; format: in vivo, mice; details: mRNA by RT-PCR
From the text: (§1) FIG. 9 represents the expression profiles of genes relating to inflammation in mice liver tissues. The left panel represents images of RT-PCR analysis results for TNFα and IL-6, and the right panel represents relative expression levels of these genes. The data were normalized to GAPDH mRNA levels and expressed as relative values to those from ND mouse. The results are represented as mean±SEM (standard error) of values obtained from RNA sample of eight mice with three independent experiments. The characters above the bars indicate significant difference in dietary groups by one-way analysis of variance (ANOVA) test and Duncan's multiple range test (P<0.05).
(§2) After adding 1 mL of Trizol agent per 0.1 g of liver tissues, the mixture was homogenized and centrifuged at 12,000×g for 10 min at 4° C. The supernatant was transferred to a new tube and 200 μl of chloroform was added to the tube, followed by vortexing. The same procedure was repeated twice and then the supernatant was transferred to a new tube, followed by addition of isopropanol and the supernatant at 1:1 ratio. […] The RNA sample concentration was measured at a wavelength of 260 nm and 280 nm using a UV/VIS spectrophotometer (Beckman coulter, DU730) and the integrity of RNA sample was verified by agarose gel electrophoresis. […]

C57BL/6J mice [2] = experiment: Liver weights, liver lipid levels and liver function indicators (ALT, AST) of mice fed test diets; format: in vivo; details: HFD with 0.05% piperonal, 10 weeks
Description: (§3) The obesity-inducing control diet used in the test was high-fat diet (HFD: 40% fat calorie, 17 g lard+3% corn oil/100 g diet). […] The normal diet (ND) was prepared under AIN-76 rodent diet (American Institute of Nutrition, Report of the American Institute of Nutrition ad hoc committee on standards for nutritional studies. J. Nutr. 107: 1340-1348, 1977) (see Table 1). Piperonal was purchased from Sigma-Aldrich.
(§4) 5-week-old male C57BL/6J mice (Orient, Korea) were accustomed to the laboratory environment for 1 week while feeding solid feed. Then, they were randomly divided into normal diet, high-fat diet and test groups and bred for a total of 10 weeks. The diet was given between 10 and 11 a.m. every day together with water. Food intake was measured every day and body weight was measured once a week. In order to avoid transient body weight increase after feed intake, body weight was measured 2 hours after removing the feed. After fasting the test animal for at least 12 hours and anesthetizing with diethyl ether, blood, liver and visceral fat (epididymal fat, perirenal fat, mesenteric fat and retroperitoneal fat) were taken and weighed after washing with 0.1 M PBS (pH 7.4). Blood taken from the abdominal aorta was centrifuged at 1000×g for 15 minutes for the separation of plasma.
Lipids were extracted from the liver tissue according to Folch et al.'s method (Folch J et al., J Biol Chem. 226: 497-509 (1957)). After adding 1 mL of distilled water to 0.25 g of liver tissue, the liver tissue was homogenized using a Polytron homogenizer (IKA-Werke GmbH & Co., Ultra-Turrax, Staufen, Germany). After adding 5 mL of chloroform:methanol solution (2:1, v/v) to the homogenate and mixing well, the mixture was centrifuged at 1000×g for 10 minutes. After adding 2 mL of chloroform:methanol solution (2:1, v/v) again to the supernatant, the same procedure was repeated to completely separate the lipid components of the liver. After adding 3 mL of chloroform:methanol:0.05% CaCl2 (3:48:47, v/v/v) solution to the remaining pellets and mixing well for 1 minute, followed by centrifugation at 1000×g for 10 minutes, the resulting pellets were completely dried with nitrogen gas. The dried lipids were dissolved in 1 mL of methanol and then analyzed.
The same kit (Bio Clinical System) as that used for the plasma analysis was used to measure the triglyceride, cholesterol and free fatty acid levels of the liver tissue.
The activity of ALT (alanine aminotransferase) and AST (aspartate aminotransferase) used as liver function indicator were measured twice for each using a commercially available kit (Bio Clinical System, Korea).

UCP1 = experiment: RT-PCR analysis of UCP1 gene expression in mouse visceral fat tissues; format: in vivo, mice; details: mRNA by RT-PCR, normalized to GAPDH, to the similar level to the ND group
From the text: (§5) FIG. 7 represents the expression profiles of UCPs genes in the visceral fat tissues of mice. The left panel represents images of RT-PCR analysis results for UCP1 and UCP3, and the right panel represents relative expression levels of these genes. The data were normalized to GAPDH mRNA levels and expressed as relative values to those from ND mouse. The results are represented as mean±SEM (standard error) of values obtained from RNA sample of eight mice with three independent experiments. The characters above the bars indicate significant difference in dietary groups by one-way analysis of variance (ANOVA) test and Duncan's multiple range test (P<0.05).
as §2, with “visceral fat” for “liver”

patients = details: sense of smell stimulated through nasal cannula during MRI for cancer diagnosis; cited from earlier work
PPARγ2 = experiment: RT-PCR analysis of PPARγ2 gene expression in mouse liver tissues; format: in vivo, mice; details: mRNA by RT-PCR, vs HFD, to levels similar for the ND
From the text: as §1, with “8” for “9”, “lipogenesis” for “inflammation”, “C/EBPα, PPARγ2” for “TNFα”, “aP2,” for “IL-6,”
as §2

UCP3 = experiment: RT-PCR analysis of UCP3 gene expression in mouse visceral fat tissues; format: in vivo, mice; details: mRNA by RT-PCR, normalized to GAPDH, to the similar level to the ND group
From the text: as §5
as §2, with “visceral fat” for “liver”

aP2 = experiment: RT-PCR analysis of aP2 gene expression in mouse liver tissues; format: in vivo, mice; details: mRNA by RT-PCR, vs HFD, to levels similar for the ND
From the text: as §1, with “8” for “9”, “lipogenesis” for “inflammation”, “C/EBPα, PPARγ2” for “TNFα”, “aP2,” for “IL-6,”
as §2

C57BL/6J mice [3] = experiment: Body weight, food intake and visceral fat-pad weights of mice fed test diets (HFD-induced obesity); format: in vivo; details: HFD with 0.05% piperonal, 10 weeks
Description: as §3, §4
The food efficiency ratio was calculated by dividing the total body weight gain during the experimental period (g) by the total food intake (g) (FIGS. 1 and 2).

[4] = system: cancinogenesis animal model; details: in vivo; cited from earlier work
C57BL/6J mice [5] = experiment: Plasma lipid and glucose levels of mice fed test diets; format: in vivo; details: HFD with 0.05% piperonal, 10 weeks
Description: as §3, §4
After 10 weeks of breeding, total cholesterol, HDL-cholesterol, triglyceride and glucose levels in the plasma and lipid levels in the liver tissue were measured as follows. Total cholesterol, HDL-cholesterol, triglyceride, free fatty acid and glucose levels in the plasma were measured twice for each using a commercially available kit (Bio Clinical System). LDL+VLDL cholesterol levels in the blood were calculated by subtracting HDL-cholesterol levels from the total cholesterol levels.

human = human took 10 g of piperonal; cited from earlier work
C/EBPα = experiment: RT-PCR analysis of C/EBPα gene expression in mouse liver tissues; format: in vivo, mice; details: mRNA by RT-PCR, vs HFD, to levels similar for the ND
From the text: as §1, with “8” for “9”, “lipogenesis” for “inflammation”, “C/EBPα, PPARγ2” for “TNFα”, “aP2,” for “IL-6,”
as §2

rats [6] = details: cited from earlier work
IL-6 = experiment: RT-PCR analysis of IL-6 gene expression in mouse liver tissues; format: in vivo, mice; details: mRNA by RT-PCR
From the text: as §1, §2

O=Cc1ccc2c(c1)OCO2 [piperonal, 1,3-benzodioxole-5-carboxaldehyde]
toxicity in rats (rats [1]): no toxicity | HFD-induced elevation in the expression of TNF-α (TNF-α): significantly reversed | decrease of absolute organ weight of liver as compared to HFD (C57BL/6J mice [2]): 23% | decreased level of cholesterol in liver tissue as compared to HFD (C57BL/6J mice [2]): 39% | decreased level of free fatty acid in liver tissue as compared to HFD (C57BL/6J mice [2]): 27% | decreased level of triglyceride in liver tissue as compared to HFD (C57BL/6J mice [2]): 13% | decreased plasma activity of ALT as compared to HFD group (C57BL/6J mice [2]): 27% | decreased plasma activity of AST as compared to HFD group (C57BL/6J mice [2]): 15% | HFD-induced decrease in expression of UCP1 gene (UCP1): significantly reversed | anxiety of patients during MRI (patients): relief from anxiety | expression of PPARγ2 gene (PPARγ2): significantly decreased | HFD-induced decrease in expression of UCP3 gene (UCP3): significantly reversed | expression of aP2 gene (aP2): significantly decreased | decrease of body weight gain as compared to HFD (C57BL/6J mice [3]): 19% | reduced weight of epididymal fat-pad as compared to HFD (C57BL/6J mice [3]): 11% | reduced weight of mesenteric fat-pad as compared to HFD (C57BL/6J mice [3]): 20% | reduced weight of perirenal fat-pad as compared to HFD (C57BL/6J mice [3]): 35% | reduced weight of retroperitoneal fat-pad as compared to HFD (C57BL/6J mice [3]): 8% | reduction of total visceral fat weight, POD group vs HFD group (C57BL/6J mice [3]; P<0.001): 15% | daily food intake (C57BL/6J mice [3]; vs HFD): no significant change | effect in carcinogenesis animal model [4]: cancer inhibitory effect | lower atherogenic indices as compared to HFD group (C57BL/6J mice [5]): 17% | lower plasma level of free fatty acid as compared to HFD group (C57BL/6J mice [5]): 17% | lower plasma level of total cholesterol as compared to HFD group (C57BL/6J mice [5]): 14% | lower plasma level of triglyceride as compared to HFD group (C57BL/6J mice [5]): 21% | reduction of fasting blood sugar level as compared to HFD (C57BL/6J mice [5]): 27% | lower plasma level of LDL+VLDL cholesterol as compared to HFD group (C57BL/6J mice [5]; total cholesterol minus HDL-cholesterol): 18% | toxicity in human (human): no toxicity | expression of C/EBPα gene (C/EBPα): significantly decreased | LD50 (rats [6]): more than 2,700 mg/kg | HFD-induced elevation in the expression of IL-6 (IL-6): significantly reversed

From patent US9884041B2 (YONSEI […], INC., priority 2010, dated 2018)
